Experimental data from PubChem BioAssay (NCI).
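Five concentrations, 48 hours, 96-well plates. TGI marks complete inhibition of growth.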

How the values were obtained:
Assay in all cases: NCI anticancer screen, dose series, 48 h
786-0 renal = system: 786-0 renal
A498 renal = system: A498 renal
A549 NSCLC = system: A549 NSCLC
ACHN renal = system: ACHN renal
CAKI-1 renal = system: CAKI-1 renal
CCRF-CEM leukemia = system: CCRF-CEM leukemia
COLO 205 colon = system: COLO 205 colon
DLD-1 colon = system: DLD-1 colon
DMS 114 small cell lung = system: DMS 114 small cell lung
DMS 273 small cell lung = system: DMS 273 small cell lung
EKVX NSCLC = system: EKVX NSCLC
HCC-2998 colon = system: HCC-2998 colon
HCT-116 colon = system: HCT-116 colon
HCT-15 colon = system: HCT-15 colon
HL-60(TB) leukemia = system: HL-60(TB) leukemia
HOP-18 NSCLC = system: HOP-18 NSCLC
HOP-62 NSCLC = system: HOP-62 NSCLC
HT29 colon = system: HT29 colon
IGROV1 ovarian = system: IGROV1 ovarian
K-562 leukemia = system: K-562 leukemia
KM12 colon = system: KM12 colon
KM20L2 colon = system: KM20L2 colon
LOX IMVI melanoma = system: LOX IMVI melanoma
M14 melanoma = system: M14 melanoma
M19-MEL melanoma = system: M19-MEL melanoma
MALME-3M melanoma = system: MALME-3M melanoma
MOLT-4 leukemia = system: MOLT-4 leukemia
NCI-H226 lung = system: NCI-H226 lung
NCI-H23 lung = system: NCI-H23 lung
NCI-H460 lung = system: NCI-H460 lung
NCI-H522 lung = system: NCI-H522 lung
OVCAR-3 ovarian = system: OVCAR-3 ovarian
OVCAR-4 ovarian = system: OVCAR-4 ovarian
OVCAR-5 ovarian = system: OVCAR-5 ovarian
OVCAR-8 ovarian = system: OVCAR-8 ovarian
RPMI-8226 leukemia = system: RPMI-8226 leukemia
RXF 393 renal = system: RXF 393 renal
RXF-631 renal = system: RXF-631 renal
SF-268 CNS = system: SF-268 CNS
SF-295 CNS = system: SF-295 CNS
SF-539 CNS = system: SF-539 CNS
SK-MEL-2 melanoma = system: SK-MEL-2 melanoma
SK-MEL-28 melanoma = system: SK-MEL-28 melanoma
SK-MEL-5 melanoma = system: SK-MEL-5 melanoma
SK-OV-3 ovarian = system: SK-OV-3 ovarian
SN12C renal = system: SN12C renal
SNB-19 CNS = system: SNB-19 CNS
SNB-75 CNS = system: SNB-75 CNS
SNB-78 CNS = system: SNB-78 CNS
SR leukemia = system: SR leukemia
TK-10 renal = system: TK-10 renal
U251 CNS = system: U251 CNS
UACC-257 melanoma = system: UACC-257 melanoma
UACC-62 melanoma = system: UACC-62 melanoma
UO-31 renal = system: UO-31 renal
XF 498 CNS = system: XF 498 CNS

Q: `N#CC12CCC(O)C(CC1)C2=O` (stereo unspecified) was tested. Which TGI (786-0 renal) did it give?
A: > 100 µM

Q: And the TGI (A498 renal)?
A: > 100 µM

Q: What about the TGI (A549 NSCLC) of the same molecule?
A: > 100 µM

Q: What about the TGI (ACHN renal) of the same molecule?
A: > 100 µM

Q: What about the TGI (CAKI-1 renal) of the same molecule?
A: > 100 µM

Q: What about the TGI (CCRF-CEM leukemia) of the same molecule?
A: > 100 µM

Q: And the TGI (COLO 205 colon)?
A: > 100 µM

Q: What about the TGI (DLD-1 colon) of the same molecule?
A: > 100 µM

Q: And the TGI (DMS 114 small cell lung)?
A: 36 µM

Q: And the TGI (DMS 273 small cell lung)?
A: > 100 µM

Q: What about the TGI (EKVX NSCLC) of the same molecule?
A: > 100 µM

Q: What about the TGI (HCC-2998 colon) of the same molecule?
A: > 100 µM

Q: What about the TGI (HCT-116 colon) of the same molecule?
A: > 100 µM

Q: What about the TGI (HCT-15 colon) of the same molecule?
A: > 100 µM

Q: And the TGI (HL-60(TB) leukemia)?
A: > 100 µM

Q: What about the TGI (HOP-18 NSCLC) of the same molecule?
A: > 100 µM

Q: What about the TGI (HOP-62 NSCLC) of the same molecule?
A: > 100 µM

Q: What about the TGI (HT29 colon) of the same molecule?
A: > 100 µM

Q: And the TGI (IGROV1 ovarian)?
A: > 100 µM

Q: What about the TGI (K-562 leukemia) of the same molecule?
A: > 100 µM

Q: What about the TGI (KM12 colon) of the same molecule?
A: > 100 µM

Q: And the TGI (KM20L2 colon)?
A: > 100 µM

Q: What about the TGI (LOX IMVI melanoma) of the same molecule?
A: 39.3 µM

Q: What about the TGI (M14 melanoma) of the same molecule?
A: > 100 µM

Q: And the TGI (M19-MEL melanoma)?
A: > 100 µM

Q: What about the TGI (MALME-3M melanoma) of the same molecule?
A: > 100 µM

Q: What about the TGI (MOLT-4 leukemia) of the same molecule?
A: > 100 µM

Q: What about the TGI (NCI-H226 lung) of the same molecule?
A: > 100 µM

Q: What about the TGI (NCI-H23 lung) of the same molecule?
A: > 100 µM

Q: And the TGI (NCI-H460 lung)?
A: > 100 µM

Q: What about the TGI (NCI-H522 lung) of the same molecule?
A: > 100 µM

Q: And the TGI (OVCAR-3 ovarian)?
A: > 100 µM

Q: And the TGI (OVCAR-4 ovarian)?
A: > 100 µM

Q: And the TGI (OVCAR-5 ovarian)?
A: > 100 µM

Q: What about the TGI (OVCAR-8 ovarian) of the same molecule?
A: > 100 µM

Q: And the TGI (RPMI-8226 leukemia)?
A: 57.1 µM

Q: And the TGI (RXF 393 renal)?
A: > 100 µM

Q: What about the TGI (RXF-631 renal) of the same molecule?
A: > 100 µM

Q: And the TGI (SF-268 CNS)?
A: > 100 µM

Q: What about the TGI (SF-295 CNS) of the same molecule?
A: > 100 µM

Q: What about the TGI (SF-539 CNS) of the same molecule?
A: > 100 µM

Q: And the TGI (SK-MEL-2 melanoma)?
A: > 100 µM

Q: What about the TGI (SK-MEL-28 melanoma) of the same molecule?
A: > 100 µM

Q: What about the TGI (SK-MEL-5 melanoma) of the same molecule?
A: > 100 µM

Q: And the TGI (SK-OV-3 ovarian)?
A: > 100 µM

Q: And the TGI (SN12C renal)?
A: > 100 µM

Q: And the TGI (SNB-19 CNS)?
A: > 100 µM

Q: And the TGI (SNB-75 CNS)?
A: > 100 µM

Q: And the TGI (SNB-78 CNS)?
A: > 100 µM

Q: And the TGI (SR leukemia)?
A: 77.3 µM

Q: What about the TGI (TK-10 renal) of the same molecule?
A: > 100 µM

Q: What about the TGI (U251 CNS) of the same molecule?
A: > 100 µM

Q: What about the TGI (UACC-257 melanoma) of the same molecule?
A: > 100 µM

Q: And the TGI (UACC-62 melanoma)?
A: > 100 µM

Q: What about the TGI (UO-31 renal) of the same molecule?
A: > 100 µM

Q: What about the TGI (XF 498 CNS) of the same molecule?
A: > 100 µM
